Results reported in patent US11400106B2, “Methods for inhibiting microbe growth” (priority 2018, dated 2022).
≈ marks a conversion by molar mass, not a printed value. Like-named read-outs stand apart in the source and are kept apart here.

Columns and labels:
P. aeruginosa CA1216 = assay: Mouse model of skin infection, neutropenic Balb/c mice; format: in vivo, Pseudomonas aeruginosa; details: topical 200 μg/mL azithromycin with 40 mM sodium bicarbonate, 25 hours post-infection
Protocol: The effect of bicarbonate on antimicrobial activity of azithromycin against P. aeruginosa was tested in a mouse model of skin infection. Balb/c mice (6-8 weeks old, female) were rendered neutropenic. Mice were treated with cyclophosphamide on day −4 (150 mg/kg) and day −1 (100 mg/kg). The following compositions were prepared: (1) Vehicle: 5 mg/mL MC, 1% DMSO; […] A 10 mg/mL methylcellulose (MC) solution was made from methylcellulose 4000 cp. 100 mL of sterile water was heated in a microwave for 30 seconds prior to adding to MC to improve solubility. The composition was shaken on a vortex for ˜20 min to completely dissolve. The compositions for mouse treatments were prepared as follows: (1) Vehicle: 980 μL sterile water, 20 μL, DMSO, 1 mL MC (10 mg/mL); […] Each composition was vortexed after preparation. […] The inoculum was diluted and plated on LB to quantify colony-forming units (CFU). The mice were weighed. Buprenorphine IP (0.025 mg/kg) was administered as an analgesic. To anaesthetize the mice, isoflurane (gaseous anesthetic) was administered. […] The fur was stripped from the back of the neck using autoclave tape. An area of ˜2 cm^2 was tape stripped by applying and removing the tape 25-30 times. […] Mice were placed into a recovery cage and monitored until the righting reflex returned. Mice were singly housed and monitored after infection. […]

[1] = test system: methicillin-resistant Staphylococcus aureus (MRSA); assay: Susceptibility testing of MRSA clinical isolates (n=100); format: cell-based; details: for MIC50 / MIC90 / MIC: Staphylococcus aureus, MRSA
Protocol: (§1) This study included one hundred (n=100) clinical isolates of methicillin-resistant Staphylococcus aureus (MRSA) and ninety-two (n=92) clinical isolates of P. aeruginosa. All samples were collected from patients at Hamilton Health Sciences hospitals (Hamilton, Ontario, Canada). Isolates, regardless of site of infection, were selected for study if they were resistant to three or more antibiotics. The isolates were cultured on plates and subsequently tested for antimicrobial susceptibility. Initial culture and antibiotic susceptibility testing were performed by Hamilton General Hospital General Microbiology Laboratory using a VITEK 2 Automated System and its Advanced Expert System (bioMerieux) and were compliant with Clinical & Laboratory Standards Institute (CLSI) antibiotic susceptibility testing formulations. Both quantitative minimum inhibitory concentration (MIC) and CLSI breakpoints were reported for each antibiotic. Additionally, a total of 7 conjunctival-sourced ocular isolates of Streptococcus pneumoniae collected by the International Health Management Associates (IHMA) from various locations in the United States were used in the study.
(§2) Antimicrobial sensitivity of the pathogenic strains was determined in compliance with the CLSI protocol. Mueller-Hinton agar plates were used to streak out bacterial species and the direct colony suspension method for inoculum preparation was used to make a suspension of the organism in saline to the density of a McFarland 0.5 turbidity standard. Cation-adjusted Mueller-Hinton broth (CA-MHB) manufactured according to ISO technical standard was used for susceptibility testing in standard 96-well microdilution plates. All antibiotics were purchased as powders from Sigma-Aldrich Canada Co. (Oakville, Canada) and dissolved in appropriate solvent to provide stock solutions as instructed by the manufacturer. Desired test antibiotic solutions were diluted in solvent at a highest test concentration resulting in 256 μg/mL. Where sodium bicarbonate was used, aqueous sterile-filtered sodium bicarbonate solution (7.5% stock) from Sigma-Aldrich Canada Co. (Oakville, Canada) was diluted to the desired concentration in CAMHB. Plates were incubated for 18 hours at 37° C. and read at 600 nm on a Tecan, infinite M1000 PRO plate reader. In accordance with CLSI, methods with appropriate medium supplements for fastidious streptococci (2.5% lysed horse blood, Innovative Research, Inc., Novi, Mich.) were used. […] All MICs in the study were conducted in duplicate.

MRSA [2] = assay: Time kill curve; format: cell-based, Staphylococcus aureus; details: 256 μg/mL azithromycin, 50 mM bicarbonate, 4 hours
Protocol: Experiments to measure the effect of bicarbonate on bactericidal activity of azithromycin were completed according to a Clinical & Laboratory Standards Institute (CLSI) protocol. Briefly, the various treatments were added to logarithmic-phase culture of MRSA in CA-MHB at the concentrations indicated in FIG. 39 and incubated at 37° C. At time points indicated in FIG. 39, cell suspensions were 10-fold serially diluted using sterile PBS buffer and spread on plates of MHB agar. Bacterial colonies were counted after cultivation at 37° C. for 24 hours.

MRSA [3] = assay: Checkerboard azithromycin and sodium bicarbonate against MRSA; format: cell-based, Staphylococcus aureus
Protocol: (§3) Standard checkerboard broth microdilution assays were set-up in 96-well microtiter plates with serially diluted 8 (or 10) concentrations of each drug (or bicarbonate), using the conditions based on CLSI guidelines, as noted above. All checkerboards were conducted in duplicate.
(§4) To assess the dose-dependence of the interaction of azithromycin and bicarbonate, standard microbroth checkerboard techniques in MRSA and P. aeruginosa were used. For both pathogens, enhancement of the activity of azithromycin was further pronounced with increasing concentrations of sodium bicarbonate, as shown in FIG. 34A and FIG. 34B, respectively. This is consistent in various different isolates of the pathogens. Evident within these checkerboards is the inherent resistance of MRSA and P. aeruginosa to azithromycin in the absence of bicarbonate, where >64 μg/mL of azithromycin was required to inhibit growth to less than 10% growth.

P. aeruginosa [4] = assay: Susceptibility testing of P. aeruginosa clinical isolates (n=92); format: cell-based, Pseudomonas aeruginosa; details: Pseudomonas aeruginosa, P. aeruginosa, n = 92 isolates, bicarbonate as in label
Protocol: as §1, §2

S. pneumoniae = assay: Susceptibility testing of conjunctival isolates of S. pneumoniae; format: cell-based; details: Streptococcus pneumoniae, bicarbonate as in label
Protocol: as §1
Antimicrobial sensitivity of the pathogenic strains was determined in compliance with the CLSI protocol. […] Plates were incubated for 18 hours at 37° C. and read at 600 nm on a Tecan, infinite M1000 PRO plate reader. […]

P. aeruginosa [5] = assay: Checkerboard azithromycin and sodium bicarbonate against P. aeruginosa; format: cell-based, Pseudomonas aeruginosa
Protocol: as §3, §4

[6] = test system: macrolide-resistant strain of MRSA; assay: Cellular accumulation of azithromycin by LC-MS/MS; format: cell-based, Staphylococcus aureus; details: azithromycin 512 μg/mL, 10 minutes contact
Protocol: A method to measure azithromycin accumulation into a macrolide-resistant strain of MRSA was adapted from a protocol described in Richter et al., Nature 545, pp. 299-304 (2017). Liquid chromatography with tandem mass spectroscopy (LC-MS/MS) was used to quantify accumulation of azithromycin in the absence or presence of 50 mM sodium bicarbonate. Azithromycin was used at 512 μg/mL (because the strain is macrolide-resistant). The azithromycin (in the absence or presence of bicarbonate) was in contact with the MRSA for 10 minutes.

S. aureus [7] = assay: microbe, parasite or virus in culture; details: Staphylococcus aureus
S. aureus [8] = details: S. aureus grown with 25 mM sodium bicarbonate vs untreated
Protocol: (§5) In the following experiments, bacterial cells were cultured in 96-well microtiter plates in cation-adjusted Mueller-Hinton Broth (MHB) for 18 h at 37° C. The main strains used were E. coli (K-12 BW25113) (placed in stationary incubator) and S. aureus (Newman Strain) (incubated at 250 r.p.m). Knockout strains (ΔtolcC and ΔychM) were used from the Keio knockout collection (Baba et al., Construction of Escherichia coli K-12 in-frame, single-gene knockout mutants: the Keio collection. Mol Syst Biol 2, 2006 0008, doi:10.1038/msb4100050 (2006)). For MIC determination and checkerboard analyses, Clinical & Laboratory Standards Institute (CLSI) protocol was used. […] DiSC3 loading of S. aureus cells was performed as previously described (Farha et al., Collapsing the proton motive force to identify synergistic combinations against Staphylococcus aureus. Chemistry & biology 20, 1168-1178, doi:10.1016/j.chembiol.2013.07.006 (2013)). CCCP concentration of 20 μM was used. pH adjustments were made by addition of HCl or NaOH. INT assay and ATP bioluminescence assays were performed as previously described (Farha et al., Collapsing the proton motive force to identify synergistic combinations against Staphylococcus aureus. Chemistry & biology 20, 1168-1178, doi:10.1016/j.chembiol.2013.07.006 (2013)). For chemical-genomic studies, the Keio library was grown overnight in cation-adjusted MHB broth, in 384-well plates. From these, treatment plates (25 mM sodium bicarbonate, or a sterile water control) were inoculated and grown for 15 hours at 37° C., in a stationary incubator. Data was normalized according to Mangat et al (Mangat et al., Rank ordering plate data facilitates data visualization and normalization in high-throughput screening. J Biomol Screen 19, 1314-1320, doi:10.1177/1087057114534298 (2014)), with gene products and GO terms mined from EcoCyc. The GFP promoter library (Keseler et al., EcoCyc: fusing model organism databases with systems biology. Nucleic Acids Res 41, D605-612, doi:10.1093/nar/gks1027 (2013)) was grown for 18 hours at ambient temperature with the same inoculation strategy as with the Keio collection. The analysis pipeline of Zaslaver et al (Zaslaver et al., A comprehensive library of fluorescent transcriptional reporters for Escherichia coli. Nat Methods 3, 623-628, doi:10.1038/nmeth895 (2006)) was used to generate maps of promoter activity, from which lists of promoters with increased or decreased activity were compiled.

Enterococcus faecium = test system: Enterococcus faecium
Protocol: as §5

E. coli [9] = details: 25 mM sodium bicarbonate
Protocol: as §5

E. coli [10] = assay: microbe, parasite or virus in culture; format: cell-based, Escherichia coli
S. aureus [11] = assay: FIC index of pentamidine combined with various salts (checkerboard); format: cell-based, Staphylococcus aureus; details: combination of pentamidine isethionate with each salt; FICI≤0.5 synergy, 1-2 additivity, >4 antagonism
Protocol: as §5

Acinetobacter baumannii = assay: MIC determination against Acinetobacter baumannii; format: cell-based; details: Acinetobacter baumannii
Protocol: as §5

Pseudomonas aeruginosa = assay: MIC determination against Pseudomonas aeruginosa; format: cell-based
Protocol: as §5, with “The GFP promoter library (Keseler et al., EcoCyc: fusing model organism databases with systems biology. Nucleic Acids Res 41, D605-612, doi:10.1093/nar/gks1027 (2013)) was grown for 18 hours at ambient temperature with the same inoculation strategy as with the Keio collection. The analysis pipeline of Zaslaver et al (Zaslaver et al., A comprehensive library of fluorescent transcriptional reporters for Escherichia coli. Nat Methods 3, 623-628, doi:10.1038/nmeth895 (2006)) was used to generate maps of promoter activity, from which lists of promoters with increased or decreased activity were compiled.” left out

S. aureus [12] = details: 25 mM sodium bicarbonate, BCECF-AM
Protocol: S. aureus cells were loaded with the pH sensitive dye BCECF-AM and were washed and resuspended in PBS. Following baseline readings, PBS (grey circles) or 25 mM sodium bicarbonate (black circles) were added at the arrow and fluorescence measured over time. A standard curve for intracellular pH calibration was used to calculate intracellular pH.

Klebsiella pneumoniae = assay: MIC determination against Klebsiella pneumoniae; format: cell-based
Protocol: as §5, with “The GFP promoter library (Keseler et al., EcoCyc: fusing model organism databases with systems biology. Nucleic Acids Res 41, D605-612, doi:10.1093/nar/gks1027 (2013)) was grown for 18 hours at ambient temperature with the same inoculation strategy as with the Keio collection. The analysis pipeline of Zaslaver et al (Zaslaver et al., A comprehensive library of fluorescent transcriptional reporters for Escherichia coli. Nat Methods 3, 623-628, doi:10.1038/nmeth895 (2006)) was used to generate maps of promoter activity, from which lists of promoters with increased or decreased activity were compiled.” left out

[13] = MRSA isolates, in the presence of 50 mM bicarbonate
[14] = n = 100 isolates, bicarbonate as in label
[15] = increasing concentrations of sodium bicarbonate

CC[C@H]1OC(=O)[C@H](C)[C@@H](O[C@H]2C[C@@](C)(OC)[C@@H](O)[C@H](C)O2)[C@H](C)[C@@H](O[C@@H]2O[C@H](C)C[C@H](N(C)C)[C@H]2O)[C@](C)(O)C[C@@H](C)CN(C)[C@H](C)[C@@H](O)[C@]1(C)O [Azithromycin]
effect of bicarbonate on antimicrobial activity in vivo (CFU) (P. aeruginosa CA1216): enhanced | eradication rate ([1]; MRSA isolates, 50 mM bicarbonate added): 90% | eradication rate ([1]; MRSA isolates, without bicarbonate): 7% | MIC50 [1, 13]: 1 µg/mL | MIC90 [1, 13]: 2 µg/mL | MIC50 [1, 14]: 128 µg/mL (≈ 171 µM) | MIC90 [1, 14]: > 256 µg/mL | MIC ([1]; n = 100 isolates, bicarbonate as in label, read-out: Maximum MIC obtained): > 256 µg/mL | MIC ([1]; n = 100 isolates, bicarbonate as in label, read-out: Minimum MIC obtained): 1 µg/mL (≈ 1.34 µM) | bactericidal action in the presence vs absence of bicarbonate (MRSA [2]): superior bactericidal action | concentration required to inhibit growth to less than 10% growth (MRSA [3]; in the absence of bicarbonate): > 64 µg/mL | dose-dependence of the interaction with sodium bicarbonate (MRSA [3]; [15]): enhancement | MIC50 (P. aeruginosa [4]): 64 µg/mL (≈ 85.4 µM) | MIC90 (P. aeruginosa [4]): 256 µg/mL (≈ 342 µM) | MIC (P. aeruginosa [4]; read-out: Maximum MIC obtained): > 256 µg/mL | MIC (P. aeruginosa [4]; read-out: Minimum MIC obtained): 0.5 µg/mL (≈ 0.668 µM) | MIC (S. pneumoniae; macrolide-resistant S. pneumoniae strain, read-out: MIC, #1186268 (R)): 32 µg/mL (≈ 42.7 µM) | MIC (S. pneumoniae; macrolide-susceptible S. pneumoniae strain, read-out: MIC, #1173373 (S)): 0.25 µg/mL (≈ 0.334 µM) | concentration required to inhibit growth to less than 10% growth (P. aeruginosa [5]; in the absence of bicarbonate): > 64 µg/mL | dose-dependence of the interaction with sodium bicarbonate (P. aeruginosa [5]; [15]): enhancement | increase in accumulation in the presence of 50 mM bicarbonate [6]: approximately 2.5 fold

O=C([O-])O.[Na+] [Sodium bicarbonate]
MIC (S. aureus [7]): 50 to 100 mM | uptake of DiSC3(5) (S. aureus [8]): increased uptake | MIC (Enterococcus faecium): 50 to 100 mM | reduction of intracellular ATP levels compared to untreated control (E. coli [9]): ~30% | reduction of cellular respiration (E. coli [9]; INT to INT-formazan, 60 min): 70% | MIC of dirithromycin in the presence of the salt (E. coli [10]; E. coli, salt at 25 mM, pH adjusted to 7.4): 4 µg/mL | MIC (E. coli [10]; Escherichia coli): 100 mM | FIC Index (with pentamidine in S. aureus) (S. aureus [11]): 0.31 | MIC (Acinetobacter baumannii): 50 mM | MIC (Pseudomonas aeruginosa): >100 mM | change in cytoplasmic pH (S. aureus [12]): rapid cytoplasmic alkalinization | MIC (Klebsiella pneumoniae): 100 mM
